Source: patent publication US20220000893A1, “METHOD FOR TREATING T-HELPER TYPE 2 MEDIATED DISEASE” (|NSERM (INSTITUT NATIONAL DE LA SANTÉ ET DE LA RECHERCHE …, priority 2018, published 2022)

System: differentiating wild-type Th2 cells
Assay: Th2 cell differentiation and commitment in Th2-polarizing culture with non-specific SETDB1 inhibitors; cytokine production by intracellular staining and flow cytometry
Conditions: naïve CD4 T cells, 6 days in Th2-polarizing conditions; 100 nM Mithramycine A for first 4 hours, 1 nM DZNep for first 24 hours; no pro-Th1 signal; vs DMSO; PMA/Ionomycine restimulation
Procedure: At the end of the culture, cytokine production was assessed by flow cytometry following T cell restimulation with PMA/Ionomycine in the presence of Monensin and intracellular staining.
Spleen and lymph nodes (mesenteric, inguinal, axillary, brachial and cervical) were collected and digested with Liberase TM and DNAse I (Sigma). Single-cell suspensions were then pooled and depleted of erythrocytes by osmotic shock (Red Blood Cell Lysis buffer, Sigma). […] Naïve CD4 T cells, defined as CD4+CD25-CD62LhighCD44low, were labeled with fluorochrome-conjugated monoclonal antibodies specific for CD4 (GK1.5, BD Biosciences), CD25 (PC61, BD Biosciences), CD62L (MEL14, Thermo Fischer Scientific) and CD44 (IM7, BD Biosciences), and purified from the enriched fraction of CD4 T cells by fluorescence-activated cell sorting (FACS Aria, BD Biosciences). […]
For intracellular cytokine staining, cells were first stimulated at 37° C. with 20 ng/mL phorbol 12-myristate 13-acetate (Millipore) and 1 μg/mL ionomycin (Millipore) for 5 hours in the presence of GolgiStop™ (BD Biosciences). […] Flow cytometry was performed by using a LSRII Fortessa cytometer (BD Biosciences) or MACSQuant analyzer 10 (Myltenyi) and the data were analyzed by using FlowJo software (Tree Star). […]

Nc1nccc2c1ncn2[C@@H]1C=C(CO)[C@@H](O)[C@H]1O [DZNEP, 3-Deazaneplanocin A]
IFN-γ production by Th2 cells (frequency of IFNg-producing cells): start to produce pro-Th1 factor, in particular IFN-γ
